Values quoted from earlier work, collected in patent US7052717B2, “Storage stable thyroxine active drug formulations and methods for their production” (Mylan Pharmaceuticals Inc., priority 2001, dated 2006).

Conditions: high humidity, light or high temperature; Won, Pharm. Res. 9(1):131-137, 1992

N[C@@H](Cc1cc(I)c(Oc2cc(I)c(O)c(I)c2)c(I)c1)C(=O)O [Levothyroxine sodium, levothyroxine sodium]
stability of drug substance: quite unstable, hygroscopic and degrades rapidly when subjected to high humidity, light or high temperature
